Laboratory results: US8802597B2, “Herbicidal pyrimidines” (E I du Pont de Nemours and Company, priority 2003, dated 2014)
Read-outs that look alike come from different tables or passages of the source.

How the values were obtained:
Format in all cases: in vivo
[1] = tested on: morningglory (Ipomoea coccinea); assay: Test C pre/postemergence; conditions: Ipomoea; for pest or weed control at 62 g/ha: 62 g ai/ha; for pest or weed control at 125 g/ha: 125 g ai/ha; for pest or weed control at 250 g/ha: 250 g ai/ha; for pest or weed control at 500 g/ha: 500 g ai/ha
Summary of the method: (§1)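 Percent control is a visual rating (0 none, 100 complete) taken against untreated plants after 12 to 14 days of greenhouse growth. Applications were made preemergence to seeded pots and postemergence to plants at the 1- to 4-leaf stage, in a non-phytotoxic surfactant-containing solvent.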

[2] = tested on: pigweed (Amaranthus retroflexus); assay: Test C pre/postemergence; conditions: Amaranthus retroflexus; for pest or weed control at 62 g/ha: 62 g ai/ha; for pest or weed control at 125 g/ha: 125 g ai/ha; for pest or weed control at 250 g/ha: 250 g ai/ha; for pest or weed control at 500 g/ha: 500 g ai/ha
Summary of the method: as §1

[3] = tested on: soybean (Glycine max); assay: Test C pre/postemergence; conditions: Glycine max; for plant injury at 62 g/ha: 62 g ai/ha; for plant injury at 125 g/ha: 125 g ai/ha; for plant injury at 250 g/ha: 250 g ai/ha; for plant injury at 500 g/ha: 500 g ai/ha
Summary of the method: as §1

[4] = tested on: woolly cupgrass (Eriochloa villosa); assay: Test C pre/postemergence; conditions: Eriochloa villosa; for pest or weed control at 62 g/ha: 62 g ai/ha; for pest or weed control at 125 g/ha: 125 g ai/ha; for pest or weed control at 250 g/ha: 250 g ai/ha; for pest or weed control at 500 g/ha: 500 g ai/ha
Summary of the method: as §1

[5] = tested on: yellow nutsedge (Cyperus esculentus); assay: Test C pre/postemergence; conditions: Cyperus; for pest or weed control at 62 g/ha: 62 g ai/ha; for pest or weed control at 125 g/ha: 125 g ai/ha; for pest or weed control at 250 g/ha: 250 g ai/ha; for pest or weed control at 500 g/ha: 500 g ai/ha
Summary of the method: as §1

[6] = tested on: chickweed (Stellaria media); assay: Test C postemergence; conditions: Stellaria media, post-emergence
Summary of the method: as §1

[7] = post-emergence, Postemergence, scale 0 to 100 (0 no effect, 100 complete control), read-out: Morningglory plant response rating
[8] = post-emergence, Postemergence, scale 0 to 100, read-out: Plant response rating, Morningglory
[9] = pre-emergence, Preemergence, scale 0 to 100, read-out: Plant response rating, Morningglory
[10] = post-emergence, Postemergence, scale 0 to 100 (0 no effect, 100 complete control), read-out: Pigweed plant response rating
[11] = post-emergence, Postemergence, scale 0 to 100, read-out: Plant response rating, Pigweed
[12] = pre-emergence, Preemergence, scale 0 to 100, read-out: Plant response rating, Pigweed
[13] = post-emergence, Postemergence, scale 0 to 100 (0 no effect, 100 complete control), read-out: Soybean plant response rating
[14] = post-emergence, Postemergence, scale 0 to 100, read-out: Plant response rating, Soybean
[15] = pre-emergence, Preemergence, scale 0 to 100, read-out: Plant response rating, Soybean
[16] = post-emergence, Postemergence, scale 0 to 100 (0 no effect, 100 complete control), read-out: Cupgrass, Woolly plant response rating
[17] = post-emergence, Postemergence, scale 0 to 100, read-out: Plant response rating, Cupgrass, Woolly
[18] = pre-emergence, Preemergence, scale 0 to 100, read-out: Plant response rating, Cupgrass, Woolly
[19] = post-emergence, Postemergence, scale 0 to 100 (0 no effect, 100 complete control), read-out: Nutsedge, Yellow plant response rating
[20] = post-emergence, Postemergence, scale 0 to 100, read-out: Plant response rating, Nutsedge, Yellow
[21] = pre-emergence, Preemergence, scale 0 to 100, read-out: Plant response rating, Nutsedge, Yellow

For CCOC(=O)c1nc(C2CC2)nc(N)c1Cl [Compound 4, ethyl 6-amino-5-chloro-2-cyclopropyl-4-pyrimidinecarboxylate], the pest or weed control at 62 g/ha [1, 7] was 15%, the pest or weed control at 125 g/ha [1, 7] was 100% and the pest or weed control at 250 g/ha [1, 8] was 100%. It also gave a pest or weed control at 500 g/ha [1, 8] of 100%, a pest or weed control at 62 g/ha ([1]; pre-emergence, Preemergence, scale 0 to 100, 0 no effect, 100 complete control, read-out: Plant response rating, Morningglory) of 100% and a pest or weed control at 125 g/ha [1, 9] of 100%. It also gave a pest or weed control at 250 g/ha [1, 9] of 100%, a pest or weed control at 500 g/ha [1, 9] of 100% and a pest or weed control at 62 g/ha [2, 10] of 100%. It also gave a pest or weed control at 125 g/ha [2, 10] of 100%, a pest or weed control at 250 g/ha [2, 11] of 100% and a pest or weed control at 500 g/ha [2, 11] of 100%. It also gave a pest or weed control at 62 g/ha ([2]; pre-emergence, Preemergence, scale 0 to 100, 0 no effect, 100 complete control, read-out: Plant response rating, Pigweed) of 95%, a pest or weed control at 125 g/ha [2, 12] of 100% and a pest or weed control at 250 g/ha [2, 12] of 100%. For the same molecule, the pest or weed control at 500 g/ha [2, 12] was 100%, the plant injury at 62 g/ha [3, 13] was 100% and the plant injury at 125 g/ha [3, 13] was 100%. It also gave a plant injury at 250 g/ha [3, 14] of 100%, a plant injury at 500 g/ha [3, 14] of 100% and a plant injury at 62 g/ha ([3]; pre-emergence, Preemergence, scale 0 to 100, 0 no effect, 100 complete control, read-out: Plant response rating, Soybean) of 95%. It also gave a plant injury at 125 g/ha [3, 15] of 100%, a plant injury at 250 g/ha [3, 15] of 100% and a plant injury at 500 g/ha [3, 15] of 100%. For the same molecule, the pest or weed control at 62 g/ha [4, 16] was 60%, the pest or weed control at 125 g/ha [4, 16] was 70% and the pest or weed control at 250 g/ha [4, 17] was 85%. The pest or weed control at 500 g/ha [4, 17] was 95%, the pest or weed control at 62 g/ha ([4]; pre-emergence, Preemergence, scale 0 to 100, 0 no effect, 100 complete control, read-out: Plant response rating, Cupgrass, Woolly) was 0% and the pest or weed control at 125 g/ha [4, 18] was 80%. The pest or weed control at 250 g/ha [4, 18] was 95%, the pest or weed control at 500 g/ha [4, 18] was 95% and the pest or weed control at 62 g/ha [5, 19] was 0%. It also gave a pest or weed control at 125 g/ha [5, 19] of 0%, a pest or weed control at 250 g/ha [5, 20] of 0% and a pest or weed control at 500 g/ha [5, 20] of 0%. It also gave a pest or weed control at 62 g/ha ([5]; pre-emergence, Preemergence, scale 0 to 100, 0 no effect, 100 complete control, read-out: Plant response rating, Nutsedge, Yellow) of 0%, a pest or weed control at 125 g/ha [5, 21] of 0% and a pest or weed control at 250 g/ha [5, 21] of 15%. The pest or weed control at 500 g/ha [5, 21] was 80%, the pest or weed control at 62 g/ha ([6]; 62 g ai/ha, scale 0 to 100 (0 no effect, 100 complete control), read-out: Chickweed plant response rating) was 30% and the pest or weed control at 125 g/ha ([6]; 125 g ai/ha, scale 0 to 100, read-out: Plant response rating, Chickweed) was 85%. For the same molecule, the pest or weed control at 250 g/ha ([6]; 250 g ai/ha, scale 0 to 100, read-out: Plant response rating, Chickweed) was 100% and the pest or weed control at 500 g/ha ([6]; 500 g ai/ha, scale 0 to 100, read-out: Plant response rating, Chickweed) was 100%.
